In series [1] the test system is CCRF S-180. Kind of series: Antitumor activity against mouse S180 cells xenografted in mouse assessed as reduction of tumor weight at 100 umol/kg/day, ip administered after 48 hrs of tumor inoculation qd for 8 days. The class given is functional. On the set-up: scale not given: the % may be the effect or the level left.
Series [2] concerns Liver microsomes. Kind of series: Drug metabolism in Wistar rat liver microsomes assessed as 1-oxo-AC04 after 60 mins by LC-MS/MS analysis. The class given is ADME, Microsome. Particulars: 1 h. (Liver microsomes are a subcellular fraction often used to study metabolism.)
Series [3] has as its system Plasma. The series is described as follows: Drug metabolism in Wistar rat plasma assessed as 1-oxo-AC04 at 1.5 mg/kg, iv administered as single dose after 120 hrs by LC-MS/MS analysis. The class given is ADME, organism-based. On the set-up: dose 1.5 mg/kg, route intravenous. Particulars: in vivo; call rule not given here.

The record followed here is ChEMBL document CHEMBL1833928, “Metabolism evaluation of the anticancer candidate AC04 by biomimetic oxidative model and rat liver microsomes” (Eur J Med Chem, 2011).

SMILES strings stand for the structures.

With `Cc1ccc(CN2C(=O)S/C(=C\c3c4ccccc4nc4ccccc34)C2=O)cc1`, the Activity in series [1] was found to be 85%. The Drug metabolism entry in series [2] and in series [3] was “Active” throughout.
